Assays:
[1] = target: HCV cap-independent translation; experiment: In vitro translation assay, FF-HCV-Ren construct, cap-independent (Ren luciferase); type: biochemical, rabbit reticulocyte lysates
How it was run: (§1)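 Rabbit reticulocyte lysate with -Met/-Leu translation mixes pre-incubated with compound 1 h at room temperature, then 0.1 μg bicistronic RNA added and translated 2 h at 30° C. Dual-Glo read-out: FF signal reports cap-dependent, Ren signal IRES-driven translation. Counter assay adds compound after translation to flag luciferase interference.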

[2] = test system: A375; experiment: 48 h Cytotoxicity A375; type: cell-based; conditions: Homo sapiens, A-375
[3] = target: EmCV Cap-independent translation; experiment: In vitro translation assay, FF-EmCV-Ren construct, cap-independent (Ren luciferase); type: biochemical, rabbit reticulocyte lysates
How it was run: as §1

[4] = target: HCV cap-dependent translation; experiment: In vitro translation assay, FF-HCV-Ren construct, cap-dependent (FF luciferase); type: biochemical, rabbit reticulocyte lysates
How it was run: as §1

[5] = target: EmCV Cap-dependent translation; experiment: In vitro translation assay, FF-EmCV-Ren construct, cap-dependent (FF luciferase); type: biochemical, rabbit reticulocyte lysates
How it was run: as §1

| SMILES | IC50 [1] [µM] | IC50 [2] [µM] | IC50 [3] [µM] | IC50 [4] [µM] | IC50 [5] [µM] |
| --- | --- | --- | --- | --- | --- |
| COc1ccc(-c2c(C(=O)/C=C/c3cncc(F)c3)c(=O)[nH]c3ccc(Cl)cc23)cc1 [Compound 79, 3-[(2E)-3-(5-fluoro(3-pyridyl))prop-2-enoyl]-6-chloro-4-(4-methoxyphenyl)hydroquinolin-2-one] | 2 to 10 | < 2 | 2 to 10 | 2 to 10 | 2 to 10 |
| COc1ccc(-c2c(C(=O)/C=C/c3ccccn3)c(=O)[nH]c3ccc(Cl)cc23)cc1 [Compound 80, 3-((2E)-3-(2-pyridyl)prop-2-enoyl)-6-chloro-4-(4-methoxyphenyl)hydroquinolin-2-one] | 2 to 10 | 2 to 10 | 2 to 10 | 10 to 20 | 2 to 10 |
| O=C(/C=C/c1cncc(F)c1)c1c(-c2ccc(Cl)cc2)c2cc(Cl)ccc2[nH]c1=O [Compound 81, 3-[(2E)-3-(5-fluoro(3-pyridyl))prop-2-enoyl]-6-chloro-4-(4-chlorophenyl)hydroquinolin-2-one] | 2 to 10 | 2 to 10 | 2 to 10 | 2 to 10 | 2 to 10 |
| O=C(/C=C/c1ccccn1)c1c(-c2ccc(Cl)cc2)c2cc(Cl)ccc2[nH]c1=O [Compound 82, 3-((2E)-3-(2-pyridyl)prop-2-enoyl)-6-chloro-4-(4-chlorophenyl)hydroquinolin-2-one] | 2 to 10 | 2 to 10 | 2 to 10 | 2 to 10 | 2 to 10 |
| O=C(/C=C/c1cncc(F)c1)c1c(-c2ccc(C(F)(F)F)cc2)c2cc(Cl)ccc2[nH]c1=O [Compound 83, 3-[(2E)-3-(5-fluoro(3-pyridyl))prop-2-enoyl]-6-chloro-4-[4-(trifluoromethyl)phenyl]hydroquinolin-2-one] | 2 to 10 | 2 to 10 | 2 to 10 | 2 to 10 | 2 to 10 |
| O=C(/C=C/c1ccccn1)c1c(-c2ccc(C(F)(F)F)cc2)c2cc(Cl)ccc2[nH]c1=O [Compound 84, 3-((2E)-3-(2-pyridyl)prop-2-enoyl)-6-chloro-4-[4-(trifluoromethyl)phenyl]hydroquinolin-2-one] | 2 to 10 | < 2 | 2 to 10 | 2 to 10 | 2 to 10 |
| Cc1ccc(-c2c(C(=O)/C=C/c3cncc(F)c3)c(=O)[nH]c3ccc(Cl)cc23)cc1 [Compound 85, 3-[(2E)-3-(5-fluoro(3-pyridyl))prop-2-enoyl]-6-chloro-4-(4-methylphenyl)hydroquinolin-2-one] | 2 to 10 | < 2 | 2 to 10 | 2 to 10 | 2 to 10 |
| Cc1ccc(-c2c(C(=O)/C=C/c3ccccn3)c(=O)[nH]c3ccc(Cl)cc23)cc1 [Compound 86, 3-((2E)-3-(2-pyridyl)prop-2-enoyl)-6-chloro-4-(4-methylphenyl)hydroquinolin-2-one] | 2 to 10 | 2 to 10 | 2 to 10 | 2 to 10 | 2 to 10 |
| O=C(/C=C/c1cncc(F)c1)c1c(-c2ccc(OC(F)(F)F)cc2)c2cc(Cl)ccc2[nH]c1=O [Compound 87, 3-[(2E)-3-(5-fluoro(3-pyridyl))prop-2-enoyl]-6-chloro-4-[4-(trifluoromethoxy)phenyl]hydroquinolin-2-one] | 2 to 10 | 2 to 10 | 2 to 10 | 2 to 10 | 2 to 10 |
| O=C(/C=C/c1ccccn1)c1c(-c2ccc(OC(F)(F)F)cc2)c2cc(Cl)ccc2[nH]c1=O [Compound 88, 3-((2E)-3-(2-pyridyl)prop-2-enoyl)-6-chloro-4-[4-(trifluoromethoxy)phenyl]hydroquinolin-2-one] | 2 to 10 | 2 to 10 | 2 to 10 | 2 to 10 | 2 to 10 |
| N#Cc1ccc(-c2c(C(=O)/C=C/c3cncc(F)c3)c(=O)[nH]c3ccc(Cl)cc23)cc1 [Compound 89] | 2 to 10 | 2 to 10 | 2 to 10 | 2 to 10 | 2 to 10 |
| N#Cc1ccc(-c2c(C(=O)/C=C/c3ccccn3)c(=O)[nH]c3ccc(Cl)cc23)cc1 [Compound 90, 4-[3-((2E)-3-(2-pyridyl)prop-2-enoyl)-6-chloro-2-oxo-4-hydroquinolyl]benzenecarbonitrile] | 2 to 10 | < 2 | 2 to 10 | 10 to 20 | 2 to 10 |
| O=C(/C=C/c1cncc(F)c1)c1c(-c2ccc(Br)cc2)c2cc(Cl)ccc2[nH]c1=O [Compound 91, 3-[(2E)-3-(5-fluoro(3-pyridyl))prop-2-enoyl]-4-(4-bromophenyl)-6-chlorohydroquinolin-2-one] | 2 to 10 | 2 to 10 | 2 to 10 | 2 to 10 | 2 to 10 |
| O=C(/C=C/c1ccccn1)c1c(-c2ccc(Br)cc2)c2cc(Cl)ccc2[nH]c1=O [Compound 92, 3-((2E)-3-(2-pyridyl)prop-2-enoyl)-4-(4-bromophenyl)-6-chlorohydroquinolin-2-one] | 2 to 10 | < 2 | 2 to 10 | 2 to 10 | 2 to 10 |
| Cc1ccnc(-c2c(C(=O)/C=C/c3cncc(F)c3)c(=O)[nH]c3ccc(Cl)cc23)c1 [Compound 93, 3-[(2E)-3-(5-fluoro(3-pyridyl))prop-2-enoyl]-6-chloro-4-(4-methyl(2-pyridyl))hydroquinolin-2-one] | > 20 | < 2 | 10 to 20 | > 20 | > 20 |
| Cc1ccnc(-c2c(C(=O)/C=C/c3ccccn3)c(=O)[nH]c3ccc(Cl)cc23)c1 [Compound 94, 3-((2E)-3-(2-pyridyl)prop-2-enoyl)-6-chloro-4-(4-methyl(2-pyridyl))hydroquinolin-2-one] | > 20 | 2 to 10 | > 20 | > 20 | > 20 |
| Cc1cncc(-c2c(C(=O)/C=C/c3ccccn3)c(=O)[nH]c3ccc(Cl)cc23)c1 [Compound 96, 3-((2E)-3-(2-pyridyl)prop-2-enoyl)-6-chloro-4-(5-methyl(3-pyridyl))hydroquinolin-2-one] | 10 to 20 | 2 to 10 | 2 to 10 | > 20 | 10 to 20 |
| COc1cncc(-c2c(C(=O)/C=C/c3cncc(F)c3)c(=O)[nH]c3ccc(Cl)cc23)c1 [Compound 97, 3-[(2E)-3-(5-fluoro(3-pyridyl))prop-2-enoyl]-6-chloro-4-(5-methoxy(3-pyridyl))hydroquinolin-2-one] | 2 to 10 | 2 to 10 | 2 to 10 | 10 to 20 | 2 to 10 |
| COc1cncc(-c2c(C(=O)/C=C/c3ccccn3)c(=O)[nH]c3ccc(Cl)cc23)c1 [Compound 98, 3-((2E)-3-(2-pyridyl)prop-2-enoyl)-6-chloro-4-(5-methoxy(3-pyridyl))hydroquinolin-2-one] | 10 to 20 | 2 to 10 | 10 to 20 | 10 to 20 | 10 to 20 |
| O=C(/C=C/c1cncc(F)c1)c1c(-c2cncc(F)c2)c2cc(Cl)ccc2[nH]c1=O [Compound 99, 3-[(2E)-3-(5-fluoro(3-pyridyl))prop-2-enoyl]-6-chloro-4-(5-fluoro(3-pyridyl))hydroquinolin-2-one] | 2 to 10 | 2 to 10 | 2 to 10 | 10 to 20 | 10 to 20 |
| O=C(/C=C/c1ccccn1)c1c(-c2cncc(F)c2)c2cc(Cl)ccc2[nH]c1=O [Compound 100, 3-((2E)-3-(2-pyridyl)prop-2-enoyl)-6-chloro-4-(5-fluoro(3-pyridyl))hydroquinolin-2-one] | 10 to 20 | 2 to 10 | 10 to 20 | 10 to 20 | 10 to 20 |
| O=C(/C=C/c1cncc(F)c1)c1c(-c2cncc(Cl)c2)c2cc(Cl)ccc2[nH]c1=O [Compound 101, 3-[(2E)-3-(5-fluoro(3-pyridyl))prop-2-enoyl]-6-chloro-4-(5-chloro(3-pyridyl))hydroquinolin-2-one] | 10 to 20 | 2 to 10 | 10 to 20 | 10 to 20 | 2 to 10 |
| O=C(/C=C/c1ccccn1)c1c(-c2cncc(Cl)c2)c2cc(Cl)ccc2[nH]c1=O [Compound 102, 3-((2E)-3-(2-pyridyl)prop-2-enoyl)-6-chloro-4-(5-chloro(3-pyridyl))hydroquinolin-2-one] | 10 to 20 | 2 to 10 | 10 to 20 | 10 to 20 | 10 to 20 |
| O=C(/C=C/c1cncc(F)c1)c1c(-c2cncc(Br)c2)c2cc(Cl)ccc2[nH]c1=O [Compound 103, (E)-4-(5-Bromo-pyridin-3-yl)-6-chloro-3-[3-(5-fluoro-pyridin-3-yl)-acryloyl]-1H-quinolin-2-one] | 2 to 10 | 2 to 10 | 2 to 10 | 10 to 20 | 2 to 10 |
| O=C(/C=C/c1ccccn1)c1c(-c2cncc(Br)c2)c2cc(Cl)ccc2[nH]c1=O [Compound 104, 3-((2E)-3-(2-pyridyl)prop-2-enoyl)-4-(5-bromo(3-pyridyl))-6-chlorohydroquinolin-2-one] | 2 to 10 | 2 to 10 | 2 to 10 | 10 to 20 | 2 to 10 |
| N#Cc1cncc(-c2c(C(=O)/C=C/c3cncc(F)c3)c(=O)[nH]c3ccc(Cl)cc23)c1 [Compound 105, 5-{3-[(2E)-3-(5-fluoro(3-pyridyl))prop-2-enoyl]-6-chloro-2-oxo-4-hydroquinolyl}pyridine-3-carbonitrile] | 10 to 20 | 2 to 10 | 10 to 20 | 10 to 20 | 10 to 20 |
